≈ marks a conversion by molar mass, not a printed value. Where two headings read alike, the source gives them in different places.
How the values were obtained:
[1] = system: L1210 mouse leukemia cells; assay: Proliferation assay (14C-thymidine incorporation) on L1210 leukemia cells; type: cell-based; settings: read-out: Proliferation test IC50
Method: (§1) The cytostatic activity of the compounds described in this text was determined on L1210 mouse leukemia cells. Specifically, the following test systems were used:
In this method, the extent to which the cells can incorporate radioactive DNA precursors (for example ^14 C-labeled thymidine) in vitro is determined after incubation of the cells with various concentrations of the test substance. Untreated L1210 cells are subjected to the same test conditions and serve as the control. The method is briefly described below:
L1210 cells in the exponential phase of growth (5×10^3 /ml in RPMI 1640) are incubated in a microtiter plate with various concentrations of the test substance for 72 hours (37° C., 5% CO2, 95% relative humidity). The controls comprise cells which are merely incubated with fresh medium. All determinations are carried out in quadruplicate. After 65 hours, 50 μl of ^14 C-thymidine (1.5 μCi/ml) are added in order to radiolabel the DNA in the cells. After incubation for 7 hours, the cells are filtered off with suction, the DNA is precipitated with 5% strength trichloroacetic acid and is then washed consecutively with water and methanol.
After drying at 50° C. and addition of 5 ml of scintillation liquid, the radioactivity incorporated in the DNA is measured.
The results are reported as the ratio of the scintillation count after incubation with the test substance as a percentage of the untreated control. The dose-activity curve is derived from the figures thus measured, and the IC50, i.e. the concentration which decreases the incorporation of radioactive thymidine by 50% compared with the control under the test conditions, is determined graphically. The IC50 figures for the compounds described in this text are summarized and compared with adriamycin (ADM) in Table 1.

L1210 leukemia cells = assay: Formation of colonies of L1210 leukemia cells in soft agar; type: cell-based; settings: Mus musculus
Method: as §1
(b) Formation of colonies of L1210 leukemia cells in soft agar
This method is used to detect an effect of the test substance on the growth characteristics of the cells over several generations (with the cell cycle period being 10-12 hours, about 14 consecutive generations are observed in the 7-day test period).
In this test, substances having cytostatic effects bring about a reduction in the number of colonies found compared with an untreated control. Specifically, the test is carried out as follows:
500 leukemia cells per plate are incubated with various concentrations of the test substance at 37° C. for 1 hour. The cells are then washed twice with McCoy 5a medium and, after addition of 0.3% agar, are finally poured into Petri dishes. Controls are merely incubated with fresh medium. In some cases, in place of incubation for 1 hour, various concentrations of the test substance are mixed into the upper agar layer in order thus to achieve continuous exposure of the cells throughout the incubation time. After the agar has solidified, the plates are incubated in an incubator at 37° C. for 7 days (5% CO2, 95% relative humidity). Then the number of resulting colonies having a diameter of 60μ is counted. The results are reported as the number of colonies in the treated agar plates as a percentage of the untreated control. The IC50 is determined from the dose-activity curve thus obtained and serves as a measure of the action of the substance. The results for the compounds described in this text are summarized and compared with adriamycin in Table 1.

[2] = 72 hours incubation, L1210 cells, 14C-thymidine incorporation
[3] = 168 h, 7 days incubation (continuous exposure), soft agar, L1210, read-out: Colony formation test IC50, 7 days incubation
[4] = 1 hour incubation, then washed, soft agar 7 days, L1210, read-out: Colony formation test IC50, 1 hour incubation
[5] = L1210, 168 h, read-out: Colony formation test IC50, 7 days incubation
[6] = L1210, read-out: Colony formation test IC50, 1 hour incubation

| SMILES | IC50 [1, 2] | IC50 (L1210 leukemia cells; [3]) | IC50 (L1210 leukemia cells; [4]) | IC50 ([1]; L1210, 72 h) | IC50 (L1210 leukemia cells; [5]) | IC50 (L1210 leukemia cells; [6]) |
| --- | --- | --- | --- | --- | --- | --- |
| CCC1(O)CCc2c(O)c3c(c(O)c2C1OC1CC(N(C)C)C(OC2CC(O)C(OC4CCC(O)C(C)O4)C(C)O2)C(C)O1)C(=O)c1cccc(O)c1C3=O (stereo not shown) [Cytorhodin K] | 3.7 ng/mL (≈ 4.79 nM) | 3 ng/mL (≈ 3.89 nM) | 31 ng/mL (≈ 40.2 nM) |  |  |  |
| CCC1(O)CCc2c(O)c3c(c(O)c2C1OC1CC(N(C)C)C(OC2CCC(O)C(C)O2)C(C)O1)C(=O)c1cccc(O)c1C3=O (stereo not shown) [Cytorhodin L] | 300 ng/mL (≈ 467 nM) | 210 ng/mL (≈ 327 nM) | 1750 ng/mL (≈ 2730 nM) |  |  |  |
| CCC1(O)CC(OC2CC(N(C)C)C(OC3CC4OC5CC(=O)C(C)OC5OC4C(C)O3)C(C)O2)c2c(O)c3c(c(O)c2C1OC1CC(N(C)C)C(OC2CC4OC5CC(=O)C(C)OC5OC4C(C)O2)C(C)O1)C(=O)c1cccc(O)c1C3=O (stereo not shown) [Cytorhodin C] |  |  |  | 0.55 ng/mL (≈ 0.466 nM) | 0.15 ng/mL (≈ 0.127 nM) | 3.4 ng/mL (≈ 2.88 nM) |
| CCC1(O)CC(OC2CC(N(C)C)C(OC3CCC(OC4C=CC(=O)C(C)O4)C(C)O3)C(C)O2)c2c(O)c3c(c(O)c2C1OC1CC(N(C)C)C(OC2CCC(OC4CCC(O)C(C)O4)C(C)O2)C(C)O1)C(=O)c1cccc(O)c1C3=O (stereo not shown) [Cytorhodin V] | 2.9 ng/mL (≈ 2.51 nM) | 0.27 ng/mL (≈ 0.234 nM) | 2 ng/mL (≈ 1.73 nM) |  |  |  |
| CCC1(O)CCc2c(O)c3c(c(O)c2C1OC1CC(N(C)C)C(OC2CCC(OC4CCC(O)C(C)O4)C(C)O2)C(C)O1)C(=O)c1cccc(O)c1C3=O (stereo not shown) [Cytorhodin E] | 25 ng/mL (≈ 33.1 nM) | 1.4 ng/mL (≈ 1.85 nM) | 28 ng/mL (≈ 37 nM) |  |  |  |
| CCC1(O)CC(OC2CC(N(C)C)C(OC3CC(O)C(OC4CCC(=O)C(C)O4)C(C)O3)C(C)O2)c2c(O)c3c(c(O)c2C1OC1CC(N(C)C)C(OC2CCC(OC4CCC(O)C(C)O4)C(C)O2)C(C)O1)C(=O)c1cccc(O)c1C3=O (stereo not shown) [Cytorhodin B] | 2.8 ng/mL (≈ 2.39 nM) | 3.4 ng/mL (≈ 2.9 nM) | 1.2 ng/mL (≈ 1.02 nM) |  |  |  |
| CCC1(O)CC(OC2CCC(OC3CCC(OC4CCC(O)C(C)O4)C(C)O3)C(C)O2)c2c(O)c3c(c(O)c2C1C(=O)OC)C(=O)c1cccc(O)c1C3=O (stereo not shown) [Cytorhodin J] | 4400 ng/mL (≈ 5710 nM) |  |  |  |  |  |
| CCC1(O)CCc2c(O)c3c(c(O)c2C1OC1CC(N(C)C)C(OC2CC(O)C(O)C(C)O2)C(C)O1)C(=O)c1cccc(O)c1C3=O (stereo not shown) [Cytorhodin M] | 280 ng/mL (≈ 426 nM) | 160 ng/mL (≈ 243 nM) | 390 ng/mL (≈ 593 nM) |  |  |  |
| CCC1(O)CC(OC2CC(N(C)C)C(OC3CCC(OC4CCC(O)C(C)O4)C(C)O3)C(C)O2)c2c(O)c3c(c(O)c2C1OC1CC(N(C)C)C(OC2CCC(OC4CCC(O)C(C)O4)C(C)O2)C(C)O1)C(=O)c1cccc(O)c1C3=O (stereo not shown) [Cytorhodin A] | 1.1 ng/mL (≈ 0.95 nM) | 3 ng/mL (≈ 2.59 nM) | 1.3 ng/mL (≈ 1.12 nM) |  |  |  |
| CCC1(O)CC(OC2CC(N(C)C)C(OC3CCC(OC4C=CC(=O)C(C)O4)C(C)O3)C(C)O2)c2c(O)c3c(c(O)c2C1OC1CC(N(C)C)C(OC2CCC(OC4C=CC(=O)C(C)O4)C(C)O2)C(C)O1)C(=O)c1cccc(O)c1C3=O (stereo not shown) [Cytorhodin F] | 2.4 ng/mL (≈ 2.09 nM) | 28 ng/mL (≈ 24.4 nM) | 42 ng/mL (≈ 36.5 nM) |  |  |  |
| CCC1(O)CC(OC2CC(N(C)C)C(OC3CC4OC5CC(=O)C(C)OC5OC4C(C)O3)C(C)O2)c2c(O)c3c(c(O)c2C1OC1CC(N(C)C)C(OC2CCC(OC4C=CC(=O)C(C)O4)C(C)O2)C(C)O1)C(=O)c1cccc(O)c1C3=O (stereo not shown) [Cytorhodin D] |  |  |  | 0.28 ng/mL (≈ 0.24 nM) | 3.7 ng/mL (≈ 3.18 nM) | 2.8 ng/mL (≈ 2.4 nM) |
| CCC1(O)CC(OC2CC(N(C)C)C(OC3CC(O)C(OC4CCC(=O)C(C)O4)C(C)O3)C(C)O2)c2c(O)c3c(c(O)c2C1OC1CC(N(C)C)C(OC2CCC(OC4C=CC(=O)C(C)O4)C(C)O2)C(C)O1)C(=O)c1cccc(O)c1C3=O (stereo not shown) [Cytorhodin P] | 2.6 ng/mL (≈ 2.23 nM) | 0.32 ng/mL (≈ 0.274 nM) | 2.8 ng/mL (≈ 2.4 nM) |  |  |  |
| COc1cccc2c1C(=O)c1c(O)c3c(c(O)c1C2=O)C[C@@](O)(C(=O)CO)C[C@@H]3O[C@H]1C[C@H](N)[C@H](O)[C@H](C)O1 [ADM, adriamycin, reference compound] | 6 ng/mL (≈ 11 nM) | 22 ng/mL (≈ 40.5 nM) | 44 ng/mL (≈ 81 nM) |  |  |  |
